Values quoted from earlier work in patent US12251395B2, “RNAS for complement inhibition” (Apellis Pharmaceuticals, Inc., priority 2019, dated 2025).
Bridges are numbered along the chain shown (N, C = ends). [ ]: non-standard residue; d: D form. Trp(5-F) = N[C@@H](Cc1c[nH]c2ccc(F)cc12)C(=O)O; Trp(5-Me) = Cc1ccc2[nH]cc(C[C@H](N)C(=O)O)c2c1; Trp(6-F) = N[C@@H](Cc1c[nH]c2cc(F)ccc12)C(=O)O; Bpa = N[C@@H](Cc1ccc(C(=O)c2ccccc2)cc1)C(=O)O; 1Nal = N[C@@H](Cc1cccc2ccccc12)C(=O)O; 2Nal = N[C@@H](Cc1ccc2ccccc2c1)C(=O)O; Igl = N[C@H](C(=O)O)C1Cc2ccccc2C1

Key:
complement activation [1] = settings: relative to compstatin amidated at the C-terminus; published data
complement activation [2] = settings: alternative pathway-mediated erythrocyte lysis assay (WO2004/026328); read-out: IC50 of compstatin

Row | IC50 (complement activation [2]) | Molecule | Activity over corn statin (complement activation [1])
1 | – | Ac-ICV(1-Nal)QDWGAHRCT-COOH (Ac-ICV[1Nal]QDWGAHRCT-OH; disulfide 2-12 (inferred)) [Ac V4(1-Nal)/H9A -OH] | 30xmore
2 | – | Ac-ICV(2-Nal)QDWGAHRCT-CONH2 (Ac-ICV[2Nal]QDWGAHRCT-NH2; disulfide 2-12 (inferred)) [Ac-V4(2-Nal)/H9A] | 99xmore
3 | – | Ac-ICV(Bpa)QDWGAHRCT-CONH2 (Ac-ICV[Bpa]QDWGAHRCT-NH2; disulfide 2-12 (inferred)) [Ac-V4(Bpa)/H9A] | 86xmore
4 | – | Ac-ICVWQDWGAHRCT-CONH2 (Ac-ICVWQDWGAHRCT-NH2; disulfide 2-12 (inferred)) [Ac-V4W/H9A] | 45xmore
5 | – | Ac-ICV(2-Nal)QDWGAHRCT-COOH (Ac-ICV[2Nal]QDWGAHRCT-OH; disulfide 2-12 (inferred)) [Ac V4(2-Nal)/H9A -OH] | 38xmore
6 | – | Ac-ICVWQDWGAHRCdT-COOH [Ac-V4W/H9A/T13dT -OH] | 55xmore
7 | – | H-GICV(5fW)QD(5fW)GAHRCTN-COOH (H-GICV[Trp(5-F)]QD[Trp(5-F)]GAHRCTN-OH; disulfide 3-13 (inferred)) [G/V4(5f-W)/W7(5fW)/H9A+FN-OH] | 112xmore
8 | – | Ac-ICV(2-IgI)QDWGAHRCT-COOH (Ac-ICV[Igl]QDWGAHRCT-OH; disulfide 2-12 (inferred)) [Ac-V42IgI/H9A -OH] | 37xmore
9 | – | Ac-ICVYQDWGAHRCT-CONH2 [Ac-V4Y/H9A] | 14xmore
10 | – | Ac-ICV(2-IgI)QDWGAHRCT-CONH2 (Ac-ICV[Igl]QDWGAHRCT-NH2; disulfide 2-12 (inferred)) [Ac-V42IgI/H9A] | 39xmore
11 | – | Ac-ICV(5-methyl-W)QDWGAHRCT-CONH2 (Ac-ICV[Trp(5-Me)]QDWGAHRCT-NH2; disulfide 2-12 (inferred)) [Ac-V4(5-MeW)/H9A] | 67xmore
12 | – | Ac-ICVWQD(5fW)GAHRCT-CONH2 (Ac-ICVWQD[Trp(5-F)]GAHRCT-NH2; disulfide 2-12 (inferred)) [Ac-V4W/W7(5fW)/H9A] | 121xmore
13 | 12 µM | CC[C@H](C)[C@H](N)C(=O)N[C@H]1CSSC[C@@H](C(=O)N[C@H](C(N)=O)[C@@H](C)O)NC(=O)[C@H](CCCN=C(N)N)NC(=O)[C@H](Cc2cnc[nH]2)NC(=O)[C@H](Cc2cnc[nH]2)NC(=O)CNC(=O)[C@H](Cc2c[nH]c3ccccc23)NC(=O)[C@H](CC(=O)O)NC(=O)[C@H](CCC(N)=O)NC(=O)[C@H](C(C)C)NC(=O)[C@H](C(C)C)NC1=O [Compstatin, H-ICVVQDWGHHRCT-CONH2] | –
14 | – | H-GICV(6fW)QD(6fW)GAHRCTN-COOH (H-GICV[Trp(6-F)]QD[Trp(6-F)]GAHRCTN-OH; disulfide 3-13 (inferred)) [+G/V4(6fW)/W7(6fW)H9A+FN-OH] | 126xmore
15 | – | Ac-ICV(5fW)QDWGAHRCT-CONH2 (Ac-ICV[Trp(5-F)]QDWGAHRCT-NH2; disulfide 2-12 (inferred)) [Ac-V4(5fW)/H9A] | 31xmore
16 | – | Ac-ICV(Bpa)QDWGAHRCT-COOH (Ac-ICV[Bpa]QDWGAHRCT-OH; disulfide 2-12 (inferred)) [Ac-V4(Bpa)/H9A -OH] | 49xmore
17 | – | Ac-ICWQDWGHHRCT-NH2 (cysteine pairing not given here) [Ac-compstatin] | 3xmore
